Reference: patent US5099015A, “Trifluoromethyl 1-carba(1-dethia)cephems” (Eli Lilly and Company, priority 1991, dated 1992)
Values after ≈ are worked out from the molar mass of the structure shown. Like-named read-outs stand apart in the source and are kept apart here.

Experiments:
Experiment in all cases: Agar dilution antibacterial test (MIC)
Type in all cases: cell-based
[1] = test system: Haemophilus influenzae C.L.
Procedure: (§1) Fresh overnight cultures of test bacteria were diluted to approximately 1x(10)4 cells/microliter and applied in one microliter volumes to the surfaces of the agar plates. The innoculated plates were incubated overnight at 35° C. in ambient air. Minimum inhibitory concentration (mic) endpoints were recorded as the lowest antibiotic concentrations in micrograms per milliliter that inhibited the development of visible growth on the plates. The following summarizes the results of such tests with the compounds of the examples listed above.

[2] = test system: Klebsiella pneumoniae KAE
Procedure: as §1

[3] = test system: Enterobacter aerogenes EB17
Procedure: as §1

[4] = test system: Enterobacter aerogenes C32
Procedure: as §1

[5] = test system: Klebsiella pneumoniae X26; details: read-out: MIC
Procedure: as §1

[6] = test system: Staphylococcus epidermidis EPI270
Procedure: as §1

[7] = test system: Staphylococcus aureus V41
Procedure: as §1

Salmonella X514 = test system: Salmonella X514
Procedure: as §1

[8] = test system: Staphylococcus pneumoniae Park 1; details: PARK1, read-out: MIC
Procedure: as §1

[9] = test system: Staphylococcus epidermidis 222
Procedure: as §1

Enterobacter cloacae EB5 = test system: Enterobacter cloacae EB5
Procedure: as §1

Citro CF17 = test system: Citro CF17
Procedure: as §1

[10] = test system: Staphylococcus pyogenes C203; details: read-out: MIC
Procedure: as §1

[11] = test system: Staphylococcus aureus S13E
Procedure: as §1

Escherichia coli N10 = test system: Escherichia coli N10
Procedure: as §1

[12] = test system: Staphylococcus aureus NRRL X1.1
Procedure: as §1

Salmonella 1335 = test system: Salmonella 1335
Procedure: as §1

[13] = test system: Klebsiella pneumoniae X68
Procedure: as §1

[14] = test system: Enterobacter cloacae 265A
Procedure: as §1

Morg morg PR15 = test system: Morg morg PR15
Procedure: as §1

Serratia SE3 = test system: Serratia SE3
Procedure: as §1

[15] = test system: Staphylococcus aureus X400
Procedure: as §1

[16] = test system: Enterococcus faecalis 2041
Procedure: as §1

[17] = test system: Haemophilus influenzae 76; details: read-out: MIC
Procedure: as §1

Serratia X99 = test system: Serratia X99
Procedure: as §1

Proteus rett C24 = details: Proteus rett C24
Procedure: as §1

Escherichia coli EC14 = test system: Escherichia coli EC14
Procedure: as §1

Enterococcus faecium X66 = test system: Enterococcus faecium X66
Procedure: as §1

Proteus incon PR33 = test system: Proteus incon PR33
Procedure: as §1

Shig sonn. N9 = test system: Shig sonn. N9
Procedure: as §1

Escherichia coli TEM = test system: Escherichia coli TEM
Procedure: as §1

Acom AC12 = test system: Acom AC12
Procedure: as §1

[18] = Klebsiella aerogenes, read-out: MIC

Work on `N[C@@H](C(=O)N[C@@H]1C(=O)N2C(C(=O)O)=C(C(F)(F)F)CC[C@H]12)c1ccccc1` [Compound 1, 7β-[D-α-(amino)phenylacetylamino]-3-trifluoromethyl-1-carba-(1-dethia)-3-cephem-4-carboxyl ic acid] yielded an MIC ([1]; read-out: MIC) of 0.5 µg/mL (≈ 1.3 µM), an MIC ([2]; read-out: MIC) of 8 µg/mL (≈ 20.9 µM) and an MIC [3, 18] of 4 µg/mL (≈ 10.4 µM). For the same molecule, the MIC [4, 18] was 4 µg/mL (≈ 10.4 µM), the MIC [5] was 0.25 µg/mL (≈ 0.652 µM) and the MIC ([6]; read-out: MIC) was 4 µg/mL (≈ 10.4 µM). The MIC ([7]; read-out: MIC) was 16 µg/mL (≈ 41.7 µM), the MIC (Salmonella X514; read-out: MIC) was 0.25 µg/mL (≈ 0.652 µM) and the MIC [8] was 0.125 µg/mL (≈ 0.326 µM). It also gave an MIC ([9]; read-out: MIC) of 4 µg/mL (≈ 10.4 µM), an MIC (Enterobacter cloacae EB5; read-out: MIC) of 8 µg/mL (≈ 20.9 µM) and an MIC (Citro CF17; read-out: MIC) of 8 µg/mL (≈ 20.9 µM). The MIC [10] was 0.06 µg/mL (≈ 0.157 µM), the MIC [11] was 32 µg/mL (≈ 83.5 µM) and the MIC (Escherichia coli N10; read-out: MIC) was 2 µg/mL (≈ 5.22 µM). The MIC ([12]; NRRLX1.1, read-out: MIC) was 2 µg/mL (≈ 5.22 µM), the MIC (Salmonella 1335; read-out: MIC) was 1 µg/mL (≈ 2.61 µM) and the MIC ([13]; read-out: MIC) was 0.5 µg/mL (≈ 1.3 µM). It also gave an MIC ([14]; read-out: MIC) of 16 µg/mL (≈ 41.7 µM), an MIC (Morg morg PR15; read-out: MIC) of 32 µg/mL (≈ 83.5 µM) and an MIC (Serratia SE3; read-out: MIC) of 32 µg/mL (≈ 83.5 µM). The MIC ([15]; read-out: MIC) was 64 µg/mL (≈ 167 µM), the MIC ([16]; read-out: MIC) was 16 µg/mL (≈ 41.7 µM) and the MIC [17] was 1 µg/mL (≈ 2.61 µM). For the same molecule, the MIC (Serratia X99; read-out: MIC) was 8 µg/mL (≈ 20.9 µM), the MIC (Proteus rett C24; read-out: MIC) was 8 µg/mL (≈ 20.9 µM) and the MIC (Escherichia coli EC14; read-out: MIC) was 0.5 µg/mL (≈ 1.3 µM). It also gave an MIC (Enterococcus faecium X66; read-out: MIC) of 32 µg/mL (≈ 83.5 µM), an MIC (Proteus incon PR33; read-out: MIC) of 16 µg/mL (≈ 41.7 µM) and an MIC (Shig sonn. N9; read-out: MIC) of 1 µg/mL (≈ 2.61 µM). The MIC (Escherichia coli TEM; read-out: MIC) was 0.5 µg/mL (≈ 1.3 µM).
`N[C@@H](C(=O)N[C@@H]1C(=O)N2C(C(=O)O)=C(C(F)(F)F)CC[C@H]12)c1ccc(O)cc1` [Compound 2, [6R,7S]-7β-[D-α-(amino)-4-hydroxyphenylacetylamino]-3-trifluoromethyl-1-carba-1-dethia-3-cephem-4-carboxylic acid] showed an MIC ([1]; read-out: MIC) of 0.7 µg/mL (≈ 1.75 µM), an MIC ([2]; read-out: MIC) of 2.3 µg/mL (≈ 5.76 µM) and an MIC [3, 18] of 1.83 µg/mL (≈ 4.58 µM). For the same molecule, the MIC [4, 18] was 2.08 µg/mL (≈ 5.21 µM), the MIC [5] was 0.3 µg/mL (≈ 0.751 µM) and the MIC ([6]; read-out: MIC) was 4.4 µg/mL (≈ 11 µM). The MIC ([7]; read-out: MIC) was 7.2 µg/mL (≈ 18 µM), the MIC (Salmonella X514; read-out: MIC) was 0.19 µg/mL (≈ 0.476 µM) and the MIC [8] was 0.2 µg/mL (≈ 0.501 µM). For the same molecule, the MIC ([9]; read-out: MIC) was 2.2 µg/mL (≈ 5.51 µM), the MIC (Enterobacter cloacae EB5; read-out: MIC) was 4.3 µg/mL (≈ 10.8 µM) and the MIC (Citro CF17; read-out: MIC) was 5.3 µg/mL (≈ 13.3 µM). For the same molecule, the MIC [10] was 0.025 µg/mL (≈ 0.0626 µM), the MIC [11] was 70.4 µg/mL (≈ 176 µM) and the MIC (Escherichia coli N10; read-out: MIC) was 0.85 µg/mL (≈ 2.13 µM). The MIC ([12]; NRRLX1.1, read-out: MIC) was 0.85 µg/mL (≈ 2.13 µM), the MIC (Acom AC12; read-out: MIC) was 21.3 µg/mL (≈ 53.3 µM) and the MIC (Salmonella 1335; read-out: MIC) was 0.58 µg/mL (≈ 1.45 µM). It also gave an MIC ([13]; read-out: MIC) of 0.6 µg/mL (≈ 1.5 µM), an MIC ([14]; read-out: MIC) of 2.3 µg/mL (≈ 5.76 µM) and an MIC (Morg morg PR15; read-out: MIC) of 26.7 µg/mL (≈ 66.9 µM). The MIC (Serratia SE3; read-out: MIC) was 16 µg/mL (≈ 40.1 µM), the MIC ([15]; read-out: MIC) was 102 µg/mL (≈ 255 µM) and the MIC ([16]; read-out: MIC) was 22.4 µg/mL (≈ 56.1 µM). For the same molecule, the MIC [17] was 0.9 µg/mL (≈ 2.25 µM), the MIC (Serratia X99; read-out: MIC) was 4.7 µg/mL (≈ 11.8 µM) and the MIC (Proteus rett C24; read-out: MIC) was 6.7 µg/mL (≈ 16.8 µM). For the same molecule, the MIC (Escherichia coli EC14; read-out: MIC) was 0.48 µg/mL (≈ 1.2 µM), the MIC (Enterococcus faecium X66; read-out: MIC) was 32 µg/mL (≈ 80.1 µM) and the MIC (Proteus incon PR33; read-out: MIC) was 2.3 µg/mL (≈ 5.76 µM). For the same molecule, the MIC (Shig sonn. N9; read-out: MIC) was 0.58 µg/mL (≈ 1.45 µM) and the MIC (Escherichia coli TEM; read-out: MIC) was 0.75 µg/mL (≈ 1.88 µM).
`CON=C(C(=O)N[C@@H]1C(=O)N2C(C(=O)O)=C(C(F)(F)F)CC[C@H]12)c1csc(N)n1` [Compound 4, [7S,6R]-7-([2-Amino-4-thiazolyl(methoxyimino)acetyl]amido)-3-trifluoromethyl-1-carba(b 1-dethia)-3-cephem-4-carboxylic acid] was tested, and the MIC [1] was “.015 µg/mL”, the MIC [2] was 32 µg/mL (≈ 73.8 µM) and the MIC [3] was “.125 µg/mL”. The MIC [4] was “.25 µg/mL”, the MIC [6] was 8 µg/mL (≈ 18.5 µM) and the MIC [7] was 8 µg/mL (≈ 18.5 µM). The MIC (Salmonella X514) was “.015 µg/mL”, the MIC [9] was 4 µg/mL (≈ 9.23 µM) and the MIC (Enterobacter cloacae EB5) was “.25 µg/mL”. The MIC (Citro CF17) was 8 µg/mL (≈ 18.5 µM), the MIC [11] was 16 µg/mL (≈ 36.9 µM) and the MIC (Escherichia coli N10) was “.06 µg/mL”. For the same molecule, the MIC [12] was 4 µg/mL (≈ 9.23 µM), the MIC (Acom AC12) was 16 µg/mL (≈ 36.9 µM) and the MIC (Salmonella 1335) was “.06 µg/mL”. The MIC [13] was “.015 µg/mL”, the MIC [14] was 64 µg/mL (≈ 148 µM) and the MIC (Morg morg PR15) was 4 µg/mL (≈ 9.23 µM). The MIC (Serratia SE3) was 2 µg/mL (≈ 4.62 µM), the MIC [15] was 128 µg/mL (≈ 295 µM) and the MIC [16] was 1 µg/mL (≈ 2.31 µM). For the same molecule, the MIC (Serratia X99) was “.5 µg/mL”, the MIC (Proteus rett C24) was 1 µg/mL (≈ 2.31 µM) and the MIC (Escherichia coli EC14) was “.03 µg/mL”. The MIC (Enterococcus faecium X66) was greater than 128 µg/mL, the MIC (Proteus incon PR33) was “.125 µg/mL” and the MIC (Shig sonn. N9) was “.06 µg/mL”. The MIC (Escherichia coli TEM) was “.125 µg/mL”.
